Assay results reported in US7495027B2, “3-aryl-4-hydroxyfuranone compounds and the human and animal health use thereof” (Wyeth, priority 2003, dated 2009).
≈ marks a conversion by molar mass, not a printed value. Where two headings read alike, the source gives them in different places.

Columns and labels:
[1] = molecular target: T1, S. aureus Uridine-diphosphate-N-acetvimuramoyl: L-alanine lipase, MurC (Staphylococcus aureus, UniProt Q2FXJ0); experiment: biochemical; details: (S) S. aureus enzyme; read-out: MurC IC50 (converted)
T1 sequence (Q2FXJ0 1-437): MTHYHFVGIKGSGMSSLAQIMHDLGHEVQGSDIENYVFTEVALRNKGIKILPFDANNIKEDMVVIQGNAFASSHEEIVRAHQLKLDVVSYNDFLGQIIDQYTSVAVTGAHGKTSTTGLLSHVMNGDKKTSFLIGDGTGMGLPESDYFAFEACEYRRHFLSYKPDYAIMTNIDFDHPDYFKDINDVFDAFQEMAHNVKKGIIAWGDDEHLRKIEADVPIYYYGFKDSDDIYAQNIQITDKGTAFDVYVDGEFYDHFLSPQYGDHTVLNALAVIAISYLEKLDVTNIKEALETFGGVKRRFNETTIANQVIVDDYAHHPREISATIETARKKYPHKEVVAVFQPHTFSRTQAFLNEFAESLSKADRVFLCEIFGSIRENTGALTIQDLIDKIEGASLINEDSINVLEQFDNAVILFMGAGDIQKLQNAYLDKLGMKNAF
Description: S. aureus and E. coli Uridine-diphosphate-N-acetvimuramoyl: L-alanine lipase, MurC
(§1) Preparation of Enzyme Solution:
A 1 mg/mL stock solution of MurC is prepared in a buffer consisting of 20 mM Tris/HCl (pH 8.5) with 2.5 μM BME. The stock solution is further diluted with the buffer to give a final enzyme concentration of 100 μg/mL for the E. coli stock solution and 70 μg/mL for the S. aureus stock solution.
(§2) Preparation of Test Compound Solutions:
(§3) All test solutions are prepared in DMSO as 10 mg/mL, then diluted with 50 mM Tris/HCl (pH 8.5) to 100 μg/mL.
(§4) Preparation of Stop Solution:
The stop solution is prepared by stirring 1 part 4.2% ammonium molydbate in 4N HCl with 2 parts 0.045% malachite green for 30 min.
In this evaluation, the inhibitory activity of a test compound against MurC, the enzyme which catalyzes the third step of bacterial cell wall bioxynthesis is determined. Experiments are performed by adding 2.5 μl buffer, 2.5 μl 0.5M NH4SO2, 5 μl 2 μM L-Ala, 5 μl enzyme solution and 6.5 μl test compound solution to each well in a 96-well microplate. After a pre-incubation period of 10 mins. at 23° C., 3.75 μl of a 0.75 μM solution of UDP-MurNac is added to each well. Following an incubation period of 10 mins. at 37° C., 210 μl stop solution and 50 μl of a 34% w/v sodium citrate solution are added and color is allowed to develop for 10 mins. at 23° C. (Lanzetta et al., Analytical Biochemistry, 1979, 95) Optical density readings are taken at 660 nm using a Molecular Devices Spectra Max 250 with Soft Max software. Controls are performed using the same procedure and omitting the addition of UDP-MurNac. […]
Using these values the IC50 is determined by linear regression analysis.

[2] = molecular target: E. coli Uridine-diphosphate-N-acetvimuramoyl: L-alanine lipase, MurC (Escherichia coli, UniProt P17952); experiment: Inhibitory activity against MurC (E. coli); type: biochemical; details: (E) E. coli enzyme
E. coli Uridine-diphosphate-N-acetvimuramoyl: L-alanine lipase, MurC, sequence (P17952 whole entry): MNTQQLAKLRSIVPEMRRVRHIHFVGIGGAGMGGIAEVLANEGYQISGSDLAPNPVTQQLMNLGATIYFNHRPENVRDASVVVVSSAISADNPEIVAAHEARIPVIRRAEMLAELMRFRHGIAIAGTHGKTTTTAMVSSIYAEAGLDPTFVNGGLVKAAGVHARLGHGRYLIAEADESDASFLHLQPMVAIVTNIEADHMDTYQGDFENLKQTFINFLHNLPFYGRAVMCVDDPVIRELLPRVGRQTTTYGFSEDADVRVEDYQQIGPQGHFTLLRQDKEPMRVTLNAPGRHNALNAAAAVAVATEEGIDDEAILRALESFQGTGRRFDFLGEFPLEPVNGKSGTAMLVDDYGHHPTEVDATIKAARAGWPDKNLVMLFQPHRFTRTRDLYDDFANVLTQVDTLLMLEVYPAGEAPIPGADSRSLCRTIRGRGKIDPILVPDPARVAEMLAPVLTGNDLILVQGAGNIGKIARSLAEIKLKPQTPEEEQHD

Streptococci = experiment: Minimum inhibitory concentration, microdilution broth method, streptococci; type: cell-based; details: S. pneumo GC 1894; Mueller-Hinton broth with 5% horse blood, 18-22 hours at 35° C.
How it was run: (§5)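 MIC by microdilution, NCCLS M7-A5. Media: MH broth (staph, enterococci); MH + 5% lysed horse blood (strep). Strains incl. methicillin-, penicillin- and/or vancomycin-resistant clinical isolates.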

enterococci = experiment: Minimum inhibitory concentration, microdilution broth method, enterococci; type: cell-based; details: Enterococcus faecalis, Mueller-Hinton broth, 18-22 hours at 35° C.
How it was run: as §5

staphylococci = experiment: Minimum inhibitory concentration, microdilution broth method, staphylococci; type: cell-based; details: Staphylococcus aureus, Mueller-Hinton broth, 18-22 hours at 35° C.
How it was run: as §5

[3] = molecular target: T2, S. aureus Uridine-diphosphate-N-acetylmuramoyl-L-alanine: D-glutamate liease, MurD (Staphylococcus aureus, UniProt Q2FZ92); experiment: biochemical; details: (S) S. aureus enzyme
T2 sequence (Q2FZ92 1-449): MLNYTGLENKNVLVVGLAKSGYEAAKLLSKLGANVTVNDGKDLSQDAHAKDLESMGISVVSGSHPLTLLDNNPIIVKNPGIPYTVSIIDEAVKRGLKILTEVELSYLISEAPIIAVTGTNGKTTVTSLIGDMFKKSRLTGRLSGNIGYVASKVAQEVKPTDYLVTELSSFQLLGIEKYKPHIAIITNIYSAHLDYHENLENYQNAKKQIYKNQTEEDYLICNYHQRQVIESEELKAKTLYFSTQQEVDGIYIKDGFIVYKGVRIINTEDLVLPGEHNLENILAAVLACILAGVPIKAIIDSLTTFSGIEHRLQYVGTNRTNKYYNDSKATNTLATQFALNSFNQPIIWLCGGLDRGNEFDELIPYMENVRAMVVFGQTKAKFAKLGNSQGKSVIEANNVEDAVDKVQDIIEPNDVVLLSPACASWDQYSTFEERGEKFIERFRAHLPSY
Description: S. aureus and E. coli Uridine-diphosphate-N-acetylmuramoyl-L-alanine: D-glutamate liease, MurD
as §1, §2, §3, §4
In this evaluation, the inhibitory activity of a test compound against MurD, the enzyme which catalyzes the fourth step of bacterial cell wall biosynthesis is determined.

[4] = molecular target: T3, S. aureus Enopyruvyl-UPD-N-acetylglucosamine reductase, Mur B (Staphylococcus aureus, UniProt P61431); experiment: biochemical; details: (S) S. aureus enzyme; read-out: MurB IC50 (converted)
T3 sequence (P61431 1-307): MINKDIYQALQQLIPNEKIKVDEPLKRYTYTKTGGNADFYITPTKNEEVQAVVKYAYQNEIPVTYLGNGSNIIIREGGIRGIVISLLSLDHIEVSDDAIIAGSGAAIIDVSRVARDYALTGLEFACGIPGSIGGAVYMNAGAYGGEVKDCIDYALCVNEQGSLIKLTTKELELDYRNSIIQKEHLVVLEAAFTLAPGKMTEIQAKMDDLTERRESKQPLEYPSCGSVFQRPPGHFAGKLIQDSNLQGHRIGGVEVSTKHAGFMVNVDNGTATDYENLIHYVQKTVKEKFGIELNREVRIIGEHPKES

[5] = molecular target: E. coli Enopyruvyl-UPD-N-acetylglucosamine reductase, Mur B (Escherichia coli, UniProt P08373); experiment: biochemical; details: (E) E. coli enzyme
E. coli Enopyruvyl-UPD-N-acetylglucosamine reductase, Mur B, sequence (P08373 whole entry): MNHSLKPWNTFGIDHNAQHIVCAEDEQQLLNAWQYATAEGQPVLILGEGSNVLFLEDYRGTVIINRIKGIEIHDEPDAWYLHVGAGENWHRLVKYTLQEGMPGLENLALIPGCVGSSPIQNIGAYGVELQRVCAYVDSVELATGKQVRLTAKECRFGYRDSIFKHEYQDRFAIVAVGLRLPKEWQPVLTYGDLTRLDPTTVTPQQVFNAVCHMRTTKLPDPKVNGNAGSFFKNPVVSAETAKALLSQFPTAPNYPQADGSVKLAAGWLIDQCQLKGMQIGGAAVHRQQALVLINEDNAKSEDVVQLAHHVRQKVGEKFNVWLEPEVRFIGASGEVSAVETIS

[6] = molecular target: E. coli UDP-N-acetylglucosamine enolpyruvoyl transferase, MurA (Escherichia coli, UniProt P0A749); experiment: biochemical; details: (E) E. coli enzyme
E. coli UDP-N-acetylglucosamine enolpyruvoyl transferase, MurA, sequence (P0A749 whole entry): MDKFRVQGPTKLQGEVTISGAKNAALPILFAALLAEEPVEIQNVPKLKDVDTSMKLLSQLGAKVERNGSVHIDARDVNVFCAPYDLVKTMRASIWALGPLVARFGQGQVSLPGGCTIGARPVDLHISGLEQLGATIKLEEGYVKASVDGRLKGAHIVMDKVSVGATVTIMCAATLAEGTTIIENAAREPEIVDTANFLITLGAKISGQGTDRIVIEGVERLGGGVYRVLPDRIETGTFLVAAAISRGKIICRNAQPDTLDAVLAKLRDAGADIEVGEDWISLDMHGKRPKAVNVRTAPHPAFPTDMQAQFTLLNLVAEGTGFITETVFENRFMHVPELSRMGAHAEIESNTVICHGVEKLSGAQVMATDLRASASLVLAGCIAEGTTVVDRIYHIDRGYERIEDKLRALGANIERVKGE
Description: Evaluation of the Inhibitory Activity of Test Compounds Against Enzymes which Catalyze Bacterial Cell Wall Biosynthesis
S. aureus and E. coli UDP-N-acetylglucosamine enolpyruvoyl transferase, MurA
as §1
The enzyme solution is prepared by admixing the following: 50 mM Tris/HCl pH 8.0, […] 1 M Tris, 5 mM DTT, […] 1 M DTT, 20% Glycerol 4 ml 50% Glycerol, add water to 10 ml.
as §4
A procedure similar to that described by C. […] Experiments are performed by adding a solution of test compound (in a mixture of dimethylsulfoxide and water) and an enzyme solution to a well. After a pre-incubation period of 10 mintues at 37° C., Tris/BME buffer and assay buffer are added. A start point optical density (OD0) reading is taken at 340 nm immediately following the addition of assay buffer. After incubation for 1 hr at 37° C., the stop solution is added and the color is allowed to develop for 30 minutes.

[7] = molecular target: E. coli Uridine-diphosphate-N-acetylmuramoyl-L-alanine: D-glutamate liease, MurD (Escherichia coli, UniProt P14900); experiment: biochemical; details: (E) E. coli enzyme
E. coli Uridine-diphosphate-N-acetylmuramoyl-L-alanine: D-glutamate liease, MurD, sequence (P14900 whole entry): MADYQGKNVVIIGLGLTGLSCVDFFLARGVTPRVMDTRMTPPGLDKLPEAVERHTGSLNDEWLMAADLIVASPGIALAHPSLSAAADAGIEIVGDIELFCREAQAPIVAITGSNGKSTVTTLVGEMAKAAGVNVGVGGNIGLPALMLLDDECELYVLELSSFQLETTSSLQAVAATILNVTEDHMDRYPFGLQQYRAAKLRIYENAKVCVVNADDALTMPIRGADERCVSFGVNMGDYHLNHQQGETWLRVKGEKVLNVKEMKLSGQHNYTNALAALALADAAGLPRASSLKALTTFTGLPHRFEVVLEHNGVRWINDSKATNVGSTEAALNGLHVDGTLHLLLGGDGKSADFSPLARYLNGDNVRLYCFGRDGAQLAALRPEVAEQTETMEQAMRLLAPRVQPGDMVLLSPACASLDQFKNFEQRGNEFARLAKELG
How it was run: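 Compound working solutions reach 100 μg/mL in 50 mM Tris/HCl (pH 8.5) after dilution of 10 mg/mL DMSO stocks; final level in the well not given here. Reaction buffer finals: 2 mM ATP, 50 mM MgCl2, 83 mM Tris/HCl, pH 8.0.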

[8] = E. faecalis GC 2242, read-out: MIC E. faecalis GC 2242
[9] = E. faecalis GC 4555, read-out: MIC E. faecalis GC 4555
[10] = S. aureus GC 1131, read-out: MIC S. aureus GC 1131
[11] = S. aureus GC 4543, read-out: MIC S. aureus GC 4543

O=C1O/C(=C\c2cccc3ccccc23)C(O)=C1c1ccc(Cl)cc1 [Example 4, 3-(4-Chlorophenyl)-4-hydroxy-5-[(Z)-1-naphthylmethylidene]-furan-2-(5H)-one]
IC50 [1]: 45.9 µM | MurC IC50 [2]: 7 µg/mL | MIC (Streptococci): 1 µg/mL (≈ 2.87 µM) | MIC (enterococci; [8]): 8 µg/mL (≈ 22.9 µM) | MIC (enterococci; [9]): 32 µg/mL (≈ 91.7 µM) | MIC (staphylococci; [10]): 16 µg/mL (≈ 45.9 µM) | MIC (staphylococci; [11]): 16 µg/mL (≈ 45.9 µM) | IC50 [3]: 68.8 µM

O=C1O/C(=C\c2cccc3ccccc23)C(O)=C1c1cccc(C(F)(F)F)c1 [Example 5]
IC50 [4]: 15.7 µM | MurB IC50 [5]: 8 µg/mL | MurC IC50 [2]: 6 (E) μg/mL | MIC (Streptococci): 0.5 µg/mL (≈ 1.31 µM) | MIC (enterococci; [8]): 8 µg/mL (≈ 20.9 µM) | MIC (enterococci; [9]): 16 µg/mL (≈ 41.8 µM) | MIC (staphylococci; [10]): 8 µg/mL (≈ 20.9 µM) | MIC (staphylococci; [11]): 8 µg/mL (≈ 20.9 µM)

COc1ccc(C2=C(O)/C(=C/c3cccc4ccccc34)OC2=O)cc1 [Example 6]
IC50 [6]: > 72.6 µM | IC50 [4]: 61 µM | IC50 ([5]; read-out: MurB IC50 (converted)): > 72.6 µM | IC50 [7]: > 72.6 µM | IC50 ([2]; read-out: MurC IC50 (converted)): 46.5 µM | MIC (Streptococci): 8 µg/mL (≈ 23.2 µM) | MIC (enterococci; [8]): 32 µg/mL (≈ 92.9 µM) | MIC (enterococci; [9]): > 128 µg/mL | MIC (staphylococci; [10]): 32 µg/mL (≈ 92.9 µM) | MIC (staphylococci; [11]): 64 µg/mL (≈ 186 µM)
